Data set [1] can be described thus: Evaluation of Caco-2 membrane permeability. Type of data set: in vitro ADME. The settings on record: human, Apical FaSSIF/HBSS pH 6.0 to Basal HBSS 4% BSA pH 7.4, 180 minutes, after 18 to 24 hours preincubation, read-out: Caco2 (Papp). The protocol: The permeability coefficient (Caco-2 Papp (cm/sec)) is calculated using a numerical expression 1.
[formula] • where dQ/dt is the permeation rate of the drug (amount of drug appearing on the Basal side per unit time), S is the total cell surface area, and C1 (0) is the concentration of drug added on the Apical side.
Caco-2 cells were cultured on 96-well Transwell for 3 weeks, then DMEM, FaSSIF (1% DMSO), and the compound were added to the Apical side, DMEM was added to the Basal side, and the cells were preincubated under 5% CO2 at 37° C. with shaking at 80 rpm for 18 to 24 hours. After the preincubation, the preincubation solutions on the Apical side and Basal side were sucked off and washed, a FaSSIF/HBSS buffer solution (1% DMSO) (pH 6.0) containing the compound was added to the Apical side, a HBSS buffer solution (4% BSA) (pH 7.4) was added to the Basal side, and measurement of membrane permeability was started. Each well was shaken under 5% CO2 at 37° C. and 80 rpm, and at 180 minutes after the start of shaking, a sample on the Basal side was collected, and the permeation amount was measured by LC/MS. From the permeation amount, the membrane permeability coefficient (Papp) was calculated. Note that the description “Caco-2 (cm/sec)” in the column in the table herein is used synonymously with “Papp (cm/sec)”.
(In general: Caco-2 monolayers are a common model of the intestinal barrier.)

A short description of data set [2]: Solubility in the presence of a surfactant (Example 2-1). The format is physicochemical. The settings on record: room temperature, stirred 20 hours. The procedure: (§1) To lyophilized powder of the compound, a 50 mM phosphate buffer solution (PPB: Phosphate buffer, pH 6.5) was added, and after shaking (at room temperature, 1800 rpm, for 24 hours), the mixed solution was filtered through a filter, and the compound concentration of the filtrate was measured by LC/MS/MS. […] To the compound powder, Cremophor EL (CreEL) (manufactured by Sigma-Aldrich Co., Ltd., “Kolliphor EL”, generic name: polyoxyethylene castor oil, average number of moles of ethylene oxide added 35), Vitamin E TPGS (manufactured by Sigma-Aldrich Co., Ltd.), an aqueous solution containing 1% TW80 (manufactured by Nacalai Tesque, Inc.), an aqueous solution containing 1.5% Ploxamer 188 (manufactured by BASF SE), or an aqueous solution containing 0.5% Triton X-100 was added, the mixed solution was stirred (at room temperature, for 20 hours) with a stirrer, and then filtered through a filter, and the compound concentration of the filtrate was measured by LC/UV. Solubility (μg/mL) was calculated from the measured compound concentration. […] From the above, CreEL and Vitamin E TPGS were selected as substrates that improve solubility independently of compounds, and evaluation of oral absorbability was performed.

Data set [3] is described as follows: In vitro solubility evaluation in 50 mM phosphate buffer solution (PPB, pH 6.5), room temperature (Example 2-1). Type of data set: physicochemical. The settings on record: 50 mM phosphate buffer pH 6.5, room temperature, shaking 24 hours, no surfactant; read-out: solubilities, PPb. The procedure:
as §1

Data set [4] is described as follows: Solubility in aqueous solution containing 0.3% or 1% Cremophor EL (Example 3-3). Type of data set: physicochemical. Conditions: 25° C., 22 to 24 hours. The protocol: Evaluation of the solubility of the cyclic peptide compound in the presence of a surfactant was performed. To lyophilized powder of the compound, an aqueous solution containing 0.3% or 1% Cremophor EL (CreEL) was added, and after shaking (at 25° C., 1000 rpm, for 22 to 24 hours), the mixed solution was filtered through a filter, and the compound concentration of the filtrate was measured by LC/UV. Solubility (μg/mL) was calculated from the measured compound concentration.

The nature of data set [5]: Solubility of cyclic peptide compound in 50 mM phosphate buffer solution (pH 6.5), 37° C. (Example 3-3). Type of data set: physicochemical. Conditions: shaking 22 to 24 hours, read-out: solubility in 50 mM phosphate buffer solution (PPB). The procedure: Evaluation of the solubility of the cyclic peptide compound was performed. To lyophilized powder of the compound, a 50 mM phosphate buffer solution (PPB: Phosphate buffer, pH 6.5) was added, and after shaking (at 37° C., 1800 rpm, for 22 to 24 hours), the mixed solution was filtered through a filter, and the compound concentration of the filtrate was measured by LC/MS/MS. Solubility was calculated from the measured compound concentration. The solubilities of the compounds 3, 4, 6, 7, and 8 were 11 μg/mL, 1 μg/mL, 1 μg/mL, 15 μg/mL, and 5 μg/mL, respectively.

Where [6] appears, read: 0.5% Triton X-100 aqueous solution, read-out: solubilities, TritonX-100 (0.5% aqueous solution).
Setting [7] is: 1% Cremophor EL aqueous solution, read-out: solubilities, CreEL (1% aqueous solution).
[8] abbreviates: 1% TW80 aqueous solution, read-out: solubilities, TW80 (1% aqueous solution).
[9] abbreviates: 1% Vitamin E TPGS aqueous solution, read-out: solubilities, VitaminE TPGS (1% aqueous solution).
Where [10] appears, read: 1.5% Poloxamer 188 aqueous solution, read-out: solubilities, Poloxamer 188 (1.5% aqueous solution).
Where [11] appears, read: 0.3% Cremophor EL aqueous solution, read-out: solubility, 0.3% Cremophor EL.
The mark [12] stands for this setting: 1% Cremophor EL aqueous solution, read-out: solubility, 1% Cremophor EL.

Values after ≈ are worked out from the molar mass of the structure shown. Read-outs that look alike come from different tables or passages of the source. Numbered stars: 1 amine (or outer) side, 2 acyl side, 3 side chain; on linkers, the order of the positions; unused ones are H or OH. Bridge positions count the residues as written; N and C are the ends. Square brackets hold non-standard residues; d marks the D form. Peptide text beside a SMILES is read from it. * marks the point of attachment. hPhe(3-Cl-4-CF3) = N[C@@H](CCc1ccc(C(F)(F)F)c(Cl)c1)C(=O)O; X1 = CN(C(CC(=O)[*:2])C(=O)C1CCCCC1)[*:1]; Bta = N[C@@H](Cc1csc2ccccc12)C(=O)O; NMeCha = CN[C@@H](CC1CCCCC1)C(=O)O; NMeChg = CN[C@H](C(=O)O)C1CCCCC1; NMeF = CN[C@@H](Cc1ccccc1)C(=O)O; NMeI = CC[C@H](C)[C@H](NC)C(=O)O; NMeL = CN[C@@H](CC(C)C)C(=O)O; NMeV = CN[C@H](C(=O)O)C(C)C; NMeAbu = CC[C@H](NC)C(=O)O; NMeA = CN[C@@H](C)C(=O)O; Piperidide = C1CCN(*)CC1; Ac5c = NC1(C(=O)O)CCCC1; Sar = CNCC(=O)O; tBu = CC(C)(C)*

For the compound `CC[C@H](C)[C@@H]1NC(=O)[C@H](CC(C)C)N(C)C(=O)CC(C(=O)C2CCCCC2)N(C)C(=O)[C@H](C2CCCCC2)N(C)C(=O)C2(CCCC2)NC(=O)[C@@H]2CCCN2C(=O)[C@H](CCc2ccc(C(F)(F)F)c(Cl)c2)NC(=O)CN(C)C(=O)[C@H](CC2CCCCC2)N(C)C(=O)CN(C)C(=O)CN(C)C1=O` (stereo partly shown) [Compound 1] (cyclo([Ac5c][NMeChg][X1][NMeL]I[Sar][Sar][NMeCha][Sar][hPhe(3-Cl-4-CF3)]P)), in data set [1], the Papp A→B at 180 min was determined as 7.1 nm/s. Further, the solubility at 20 h in data set [2] (setting [6]) was 0.743 mg/mL; in data set [2] (setting [7]) it was 3.39 mg/mL; in data set [2] (setting [8]), 1.27 mg/mL; in data set [2] (setting [9]), 3.1 mg/mL; in data set [2] (setting [10]) it was less than 0.013 mg/mL. Besides, the solubility at 24 h in data set [3] was 0.001 mg/mL (≈ 0.694 µM).
Regarding `CC[C@H](C)[C@H]1C(=O)N[C@@H](COC(C)(C)C)C(=O)N(C)[C@@H](Cc2ccccc2)C(=O)N(C)[C@@H](C(C)C)C(=O)N[C@H](C(=O)N2CCCCC2)CC(=O)N(C)[C@@H](C)C(=O)N(C)[C@@H](Cc2ccccc2)C(=O)N[C@@H](CC(C)C)C(=O)N(C)[C@@H](CC(C)C)C(=O)N[C@@H]([C@@H](C)O)C(=O)N(C)CC(=O)N1C` [Compound 2] ([NMeA][NMeF]L[NMeL]T[Sar][NMeI]S(tBu)[NMeF][NMeV]D-Piperidide; lactam N-11), the Papp A→B at 180 min in data set [1] came out at 59.9 nm/s. Further, the solubility at 20 h in data set [2] (setting [6]) worked out at 0.498 mg/mL; in data set [2] (setting [7]), 1.05 mg/mL; in data set [2] (setting [8]), 0.707 mg/mL; in data set [2] (setting [9]) it was 1.95 mg/mL; in data set [2] (setting [10]) it was 0.031 mg/mL. Besides, the solubility at 24 h in data set [3] amounted to 0.011 mg/mL (≈ 7.94 µM).
Take `CC(C)C[C@@H]1NC(=O)[C@H](Cc2ccccc2)N(C)C(=O)[C@@H](C(C)C)NC(=O)C[C@@H](C(=O)N2CCCCC2)NC(=O)[C@H](C(C)C)N(C)C(=O)[C@H](Cc2ccccc2)N(C)C(=O)[C@H](COC(C)(C)C)NC(=O)[C@H](CC(C)C)N(C)C(=O)CN(C)C(=O)[C@H]([C@@H](C)O)NC(=O)[C@H](CC(C)C)N(C)C1=O` [Compound 3] ([dV][NMeF]L[NMeL]T[Sar][NMeL]S(tBu)[NMeF][NMeV]D-Piperidide; lactam N-11): in data set [1], the Papp A→B at 180 min was found to be 40.7 nm/s. Besides, the solubility in data set [4] (setting [11]) is 0.101 mg/mL (≈ 72.2 µM); in data set [4] (setting [12]) it was 0.395 mg/mL (≈ 282 µM); in data set [5], 0.011 mg/mL (≈ 7.86 µM).
For `CC(C)C[C@@H]1NC(=O)[C@H](Cc2ccccc2)N(C)C(=O)[C@H](COC(C)(C)C)NC(=O)[C@H](Cc2ccccc2)N(C)C(=O)[C@H](C)N(C)C(=O)[C@H](CC(C)C)N(C)C(=O)[C@@H](C)NC(=O)C[C@@H](C(=O)N2CCCCC2)NC(=O)[C@H](Cc2ccccc2)N(C)C(=O)[C@H]([C@@H](C)O)NC(=O)[C@H](CC(C)C)N(C)C1=O` [Compound 4] ([dA][NMeL][NMeA][NMeF]S(tBu)[NMeF]L[NMeL]T[NMeF]D-Piperidide; lactam N-11), in that order: 14.5 nm/s, 0.214 mg/mL (≈ 149 µM), 0.789 mg/mL (≈ 550 µM) and 0.001 mg/mL (≈ 0.697 µM).
As to `CC[C@H]1C(=O)N[C@@H](COC(C)(C)C)C(=O)N(C)[C@@H](Cc2ccccc2)C(=O)N(C)[C@@H](C)C(=O)N[C@H](C(=O)N2CCCCC2)CC(=O)N[C@H](CC(C)C)C(=O)N(C)[C@@H](CC(C)C)C(=O)N[C@@H](Cc2csc3ccccc23)C(=O)N(C)[C@@H](CC(C)C)C(=O)N[C@@H]([C@@H](C)O)C(=O)N(C)CC(=O)N1C` [Compound 5] ([dL][NMeL][Bta][NMeL]T[Sar][NMeAbu]S(tBu)[NMeF][NMeA]D-Piperidide; lactam N-11), the Papp A→B at 180 min in data set [1] is 14.2 nm/s. The values for the solubility in data set [4] (setting [11]) and in data set [4] (setting [12]) were 0.295 mg/mL (≈ 209 µM) and 1.11 mg/mL (≈ 785 µM), respectively.

The record behind these values is patent US20260273107A1, “COMPOUND PHARMACEUTICAL PREPARATION CONTAINING OIL COMPONENT COMPRISING POLYOXYETHYLENE STRUCTURE” (CHUGAI SEIYAKU KABUSHIKI KAISHA, priority 2022, published 2026).
